According to ChEMBL document CHEMBL5528027, “Target identification, and optimization of dioxygenated amide derivatives as potent antibacterial agents with FabH inhibitory activity” (Eur J Med Chem, 2024):
Converted amounts (≈) assume the structure as drawn.

Key:
Escherichia coli = assay: Antibacterial activity against Escherichia coli assessed as reduction in bacterial growth measured after 24 hrs by two-fold serial dilution method; assay type: functional
Pseudomonas aeruginosa = assay: Antibacterial activity against Pseudomonas aeruginosa assessed as reduction in bacterial growth measured after 24 hrs by two-fold serial dilution method; assay type: functional
Klebsiella pneumoniae = assay: Antibacterial activity against Klebsiella pneumoniae assessed as reduction in bacterial growth measured after 24 hrs by two-fold serial dilution method; assay type: functional
Bacillus subtilis = assay: Antibacterial activity against Bacillus subtilis assessed as reduction in bacterial growth measured after 24 hrs by two-fold serial dilution method; assay type: functional
Staphylococcus aureus = assay: Antibacterial activity against Staphylococcus aureus assessed as reduction in bacterial growth measured after 24 hrs by two-fold serial dilution method; assay type: functional
Streptococcus pneumoniae = assay: Antibacterial activity against Streptococcus pneumoniae assessed as reduction in bacterial growth measured after 24 hrs by two-fold serial dilution method; assay type: functional
[1] = Cytotoxicity against mouse NIH3T3 cells incubated for 24 hrs by MTT analysis; assay type: toxicity, cell-based
[2] = target: T1, Beta-ketoacyl-[acyl-carrier-protein] synthase III (Escherichia coli K-12, UniProt P0A6R0); assay: Inhibition of Escherichia coli FabH
T1 sequence (P0A6R0 whole entry): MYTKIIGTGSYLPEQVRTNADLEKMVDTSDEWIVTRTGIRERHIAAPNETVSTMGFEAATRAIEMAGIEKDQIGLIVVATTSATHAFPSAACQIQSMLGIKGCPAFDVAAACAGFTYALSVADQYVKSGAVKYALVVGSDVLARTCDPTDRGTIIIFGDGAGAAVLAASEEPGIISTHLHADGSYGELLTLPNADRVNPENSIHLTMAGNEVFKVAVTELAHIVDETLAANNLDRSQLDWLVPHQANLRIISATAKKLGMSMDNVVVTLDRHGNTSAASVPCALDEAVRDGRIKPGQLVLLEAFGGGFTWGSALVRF

Erythrocyte = assay: Hemolytic activity in human erythrocytes assessed as hemolysis by spectrophotometric analysis; assay type: toxicity, cell-based

MIC (Escherichia coli) [µg/mL]	MIC (Pseudomonas aeruginosa) [µg/mL]	MIC (Klebsiella pneumoniae) [µg/mL]	MIC (Bacillus subtilis) [µg/mL]	MIC (Staphylococcus aureus) [µg/mL]	MIC (Streptococcus pneumoniae) [µg/mL]	IC50 [2] [µM]	SMILES	IC50 at 24 h [1] [µM]	HC30 (Erythrocyte) [µg/mL]
25 (≈ 78 µM)	25 (≈ 78 µM)	50 (≈ 156 µM)	25 (≈ 78 µM)	25 (≈ 78 µM)	25 (≈ 78 µM)	–	O=C(Nc1ccc2ccccc2n1)c1ccc2c(c1)OCCCO2	–	–
25 (≈ 70.9 µM)	50 (≈ 142 µM)	50 (≈ 142 µM)	25 (≈ 70.9 µM)	50 (≈ 142 µM)	> 100	–	COc1ccc2[nH]cc(CNC(=O)c3ccc4c(c3)OCCCO4)c2c1	–	–
6.25 (≈ 20 µM)	> 100	25 (≈ 80 µM)	50 (≈ 160 µM)	50 (≈ 160 µM)	> 100	46.4	CC(=O)c1cccnc1NC(=O)c1ccc2c(c1)OCCCO2	128	> 10
6.25 (≈ 22.7 µM)	6.25 (≈ 22.7 µM)	–	12.5 (≈ 45.4 µM)	6.25 (≈ 22.7 µM)	–	–	CC1(CCNC(=O)c2ccc3c(c2)OCCCO3)N=N1	–	–
25 (≈ 74.1 µM)	50 (≈ 148 µM)	> 100	25 (≈ 74.1 µM)	> 100	50 (≈ 148 µM)	–	O=C(NCCc1nc2ccccc2[nH]1)c1ccc2c(c1)OCCCO2	–	–
50 (≈ 143 µM)	50 (≈ 143 µM)	50 (≈ 143 µM)	> 100	50 (≈ 143 µM)	> 100	–	COc1cc(NC(=O)c2ccc3c(c2)OCCCO3)c2ncccc2c1	–	–
12.5 (≈ 39 µM)	25 (≈ 78 µM)	50 (≈ 156 µM)	12.5 (≈ 39 µM)	25 (≈ 78 µM)	25 (≈ 78 µM)	–	O=C(Nc1cccc2cccnc12)c1ccc2c(c1)OCCCO2	–	–
50 (≈ 156 µM)	25 (≈ 78 µM)	25 (≈ 78 µM)	50 (≈ 156 µM)	50 (≈ 156 µM)	25 (≈ 78 µM)	–	O=C(Nc1cccc2ncccc12)c1ccc2c(c1)OCCCO2	–	–
50 (≈ 184 µM)	50 (≈ 184 µM)	> 100	> 100	50 (≈ 184 µM)	50 (≈ 184 µM)	–	O=C(Nc1ccncn1)c1ccc2c(c1)OCCCO2	–	–
25 (≈ 86.1 µM)	50 (≈ 172 µM)	50 (≈ 172 µM)	> 100	25 (≈ 86.1 µM)	50 (≈ 172 µM)	–	CCN1CCN(C(=O)c2ccc3c(c2)OCCCO3)CC1	–	–
12.5 (≈ 37.4 µM)	12.5 (≈ 37.4 µM)	50 (≈ 150 µM)	25 (≈ 74.8 µM)	12.5 (≈ 37.4 µM)	25 (≈ 74.8 µM)	–	Cc1ccc2cccc(NC(=O)c3ccc4c(c3)OCCCO4)c2n1	–	–
3.13 (≈ 9.25 µM)	6.25 (≈ 18.5 µM)	6.25 (≈ 18.5 µM)	> 100	50 (≈ 148 µM)	25 (≈ 73.9 µM)	8.6	O=C(Nc1ccc(C(F)(F)F)cn1)c1ccc2c(c1)OCCCO2	204	> 10
25 (≈ 87.9 µM)	50 (≈ 176 µM)	> 100	> 100	50 (≈ 176 µM)	> 100	–	Cc1ccc(NC(=O)c2ccc3c(c2)OCCCO3)cn1	–	–
12.5 (≈ 43.2 µM)	25 (≈ 86.4 µM)	–	25 (≈ 86.4 µM)	25 (≈ 86.4 µM)	–	–	CC1(CCCNC(=O)c2ccc3c(c2)OCCCO3)N=N1	–	–
> 100	> 100	> 100	50 (≈ 114 µM)	> 100	> 100	–	O=C(c1ccc2c(c1)OCCCO2)N1CCN(C(=O)c2ccc3c(c2)OCCCO3)CC1	–	–
50 (≈ 142 µM)	50 (≈ 142 µM)	25 (≈ 70.9 µM)	> 100	50 (≈ 142 µM)	25 (≈ 70.9 µM)	–	O=C(c1ccc2c(c1)OCCCO2)N1CCN(Cc2ccccc2)CC1	–	–
3.13 (≈ 6.47 µM)	3.13 (≈ 6.47 µM)	3.13 (≈ 6.47 µM)	1.56 (≈ 3.23 µM)	1.56 (≈ 3.23 µM)	50 (≈ 103 µM)	–	NC[C@H]1O[C@H](O[C@H]2[C@H](O)[C@@H](O[C@H]3O[C@H](CO)[C@@H](O)[C@H](N)[C@H]3O)[C@H](N)C[C@@H]2N)[C@H](N)[C@@H](O)[C@@H]1O [BEKANAMYCIN]	–	–
